Reference: ChEMBL document CHEMBL1649267, “Molecular epidemiology and mechanisms of carbapenem resistance in Pseudomonas aeruginosa” (2009)
≈ marks a conversion by molar mass, not a printed value.

Experiments:
[1] = test system: Pseudomonas aeruginosa; format: functional; conditions: isolate Paebeta-03
[2] = test system: Pseudomonas aeruginosa; format: functional; conditions: isolate Paebeta-05
[3] = test system: Pseudomonas aeruginosa; format: functional; conditions: isolate Paebeta-09
[4] = test system: Pseudomonas aeruginosa; format: functional; conditions: isolate Paebeta-11
[5] = test system: Pseudomonas aeruginosa; format: functional; conditions: isolate Paebeta-05; remark: listed apart in the source
[6] = test system: Pseudomonas aeruginosa; format: functional; conditions: isolate Paebeta-32
[7] = test system: Pseudomonas aeruginosa; format: functional; conditions: isolate Paebeta-26
[8] = test system: Pseudomonas aeruginosa; format: functional; conditions: isolate Paebeta-07
[9] = test system: Pseudomonas aeruginosa; format: functional; conditions: isolate Paebeta-27
[10] = test system: Pseudomonas aeruginosa; format: functional; conditions: isolate Paebeta-24
[11] = test system: Pseudomonas aeruginosa; format: functional; conditions: isolate Paebeta-07; remark: listed apart in the source
[12] = test system: Pseudomonas aeruginosa; format: functional; conditions: isolate Paebeta-17
[13] = test system: Pseudomonas aeruginosa; format: functional; conditions: isolate Paebeta-30
[14] = test system: Pseudomonas aeruginosa; format: functional; conditions: isolate Paebeta-24; remark: listed apart in the source
[15] = test system: Pseudomonas aeruginosa; format: functional; conditions: isolate Paebeta-17; remark: listed apart in the source
[16] = test system: Pseudomonas aeruginosa; format: functional; conditions: isolate Paebeta-18
[17] = test system: Pseudomonas aeruginosa; format: functional; conditions: isolate Paebeta-29
[18] = test system: Pseudomonas aeruginosa; format: functional; conditions: isolate Paebeta-30; remark: listed apart in the source
[19] = test system: Pseudomonas aeruginosa; format: functional; conditions: isolate Paebeta-09; remark: listed apart in the source
[20] = test system: Pseudomonas aeruginosa; format: functional; conditions: isolate Paebeta-11; remark: listed apart in the source
[21] = test system: Pseudomonas aeruginosa; format: functional; conditions: isolate Paebeta-31
[22] = test system: Pseudomonas aeruginosa; format: functional; conditions: isolate Paebeta-16
[23] = test system: Pseudomonas aeruginosa; format: functional; conditions: isolate Paebeta-31; remark: listed apart in the source
[24] = test system: Pseudomonas aeruginosa; format: functional; conditions: isolate Paebeta-08
[25] = test system: Pseudomonas aeruginosa; format: functional; conditions: isolate Paebeta-12
[26] = test system: Pseudomonas aeruginosa; format: functional; conditions: isolate Paebeta-16; remark: listed apart in the source
[27] = test system: Pseudomonas aeruginosa; format: functional; conditions: isolate Paebeta-29; remark: listed apart in the source
[28] = test system: Pseudomonas aeruginosa; format: functional; conditions: isolate Paebeta-13
[29] = test system: Pseudomonas aeruginosa; format: functional; conditions: isolate Paebeta-04
[30] = test system: Pseudomonas aeruginosa; format: functional; conditions: isolate Paebeta-14
[31] = test system: Pseudomonas aeruginosa; format: functional; conditions: isolate Paebeta-10
[32] = test system: Pseudomonas aeruginosa; format: functional; conditions: isolate Paebeta-28
[33] = test system: Pseudomonas aeruginosa; format: functional; conditions: isolate Paebeta-25
[34] = test system: Pseudomonas aeruginosa; format: functional; conditions: isolate Paebeta-06
[35] = test system: Pseudomonas aeruginosa; format: functional; conditions: isolate Paebeta-19
[36] = test system: Pseudomonas aeruginosa; format: functional; conditions: isolate Paebeta-04; remark: listed apart in the source
[37] = test system: Pseudomonas aeruginosa; format: functional; conditions: isolate Paebeta-23
[38] = test system: Pseudomonas aeruginosa; format: functional; conditions: isolate Paebeta-21
[39] = test system: Pseudomonas aeruginosa; format: functional; conditions: isolate Paebeta-27; remark: listed apart in the source
[40] = test system: Pseudomonas aeruginosa; format: functional; conditions: isolate Paebeta-20
[41] = test system: Pseudomonas aeruginosa; format: functional; conditions: isolate Paebeta-32; remark: listed apart in the source
[42] = test system: Pseudomonas aeruginosa; format: functional; conditions: isolate Paebeta-22
[43] = test system: Pseudomonas aeruginosa; format: functional; conditions: isolate Paebeta-06; remark: listed apart in the source
[44] = test system: Pseudomonas aeruginosa; format: functional; conditions: isolate Paebeta-18; remark: listed apart in the source
[45] = test system: Pseudomonas aeruginosa; format: functional; conditions: isolate Paebeta-03; remark: listed apart in the source
[46] = test system: Pseudomonas aeruginosa; format: functional; conditions: isolate Paebeta-28; remark: listed apart in the source
[47] = test system: Pseudomonas aeruginosa; format: functional; conditions: isolate Paebeta-20; remark: listed apart in the source
[48] = test system: Pseudomonas aeruginosa; assay: microbe, parasite or virus in culture; conditions: isolate Paebeta-12
Description: Antibacterial activity against mexB, mexY and mexD expressing Pseudomonas aeruginosa isolate Paebeta-12 harboring A residue at 105 position in PDC- 2 and polymorphic OprD gene by Etest method in presence of cloxacillin

[49] = test system: Pseudomonas aeruginosa; format: functional; conditions: isolate Paebeta-15
[50] = test system: Pseudomonas aeruginosa; format: functional; conditions: isolate Paebeta-14; remark: listed apart in the source
[51] = test system: Pseudomonas aeruginosa; format: functional; conditions: isolate Paebeta-22; remark: listed apart in the source
[52] = test system: Pseudomonas aeruginosa; format: functional; conditions: isolate Paebeta-21; remark: listed apart in the source
[53] = test system: Pseudomonas aeruginosa; format: functional; conditions: isolate Paebeta-13; remark: listed apart in the source
[54] = test system: Pseudomonas aeruginosa; format: functional; conditions: isolate Paebeta-10; remark: listed apart in the source
[55] = test system: Pseudomonas aeruginosa; format: functional; conditions: isolate Paebeta-08; remark: listed apart in the source
[56] = test system: Pseudomonas aeruginosa; format: functional; conditions: isolate Paebeta-23; remark: listed apart in the source
[57] = test system: Pseudomonas aeruginosa; format: functional; conditions: isolate Paebeta-25; remark: listed apart in the source

SMILES: C[C@@H](O)[C@H]1C(=O)N2C(C(=O)O)=C(SCCNC=N)C[C@H]12 [IMIPENEM ANHYDROUS]
- MIC [1]: 16 µg/mL (≈ 53.4 µM)
- MIC [2]: 16 µg/mL (≈ 53.4 µM)
- MIC [3]: 2 µg/mL (≈ 6.68 µM)
- MIC [4]: 16 µg/mL (≈ 53.4 µM)
- MIC [5]: 16 µg/mL (≈ 53.4 µM)
- MIC [6]: 16 µg/mL (≈ 53.4 µM)
- MIC [7]: 4 µg/mL (≈ 13.4 µM)
- MIC [8]: 2 µg/mL (≈ 6.68 µM)
- MIC [9]: 16 µg/mL (≈ 53.4 µM)
- MIC [10]: 32 µg/mL (≈ 107 µM)
- MIC [11]: 16 µg/mL (≈ 53.4 µM)
- MIC [12]: 32 µg/mL (≈ 107 µM)
- MIC [13]: 8 µg/mL (≈ 26.7 µM)
- MIC [14]: 8 µg/mL (≈ 26.7 µM)
- MIC [15]: 8 µg/mL (≈ 26.7 µM)
- MIC [16]: 64 µg/mL (≈ 214 µM)
- MIC [17]: 16 µg/mL (≈ 53.4 µM)
- MIC [18]: 8 µg/mL (≈ 26.7 µM)
- MIC [19]: 16 µg/mL (≈ 53.4 µM)
- MIC [20]: 2 µg/mL (≈ 6.68 µM)
- MIC [21]: 16 µg/mL (≈ 53.4 µM)
- MIC [22]: 4 µg/mL (≈ 13.4 µM)
- MIC [23]: 16 µg/mL (≈ 53.4 µM)
- MIC [24]: 16 µg/mL (≈ 53.4 µM)
- MIC [25]: 16 µg/mL (≈ 53.4 µM)
- MIC [26]: 32 µg/mL (≈ 107 µM)
- MIC [27]: 16 µg/mL (≈ 53.4 µM)
- MIC [28]: 0.5 µg/mL (≈ 1.67 µM)
- MIC [29]: 16 µg/mL (≈ 53.4 µM)
- MIC [30]: 2 µg/mL (≈ 6.68 µM)
- MIC [31]: 16 µg/mL (≈ 53.4 µM)
- MIC [32]: 16 µg/mL (≈ 53.4 µM)
- MIC [33]: 8 µg/mL (≈ 26.7 µM)
- MIC [34]: 16 µg/mL (≈ 53.4 µM)
- MIC [35]: 4 µg/mL (≈ 13.4 µM)
- MIC [36]: 4 µg/mL (≈ 13.4 µM)
- MIC [37]: 32 µg/mL (≈ 107 µM)
- MIC [38]: 16 µg/mL (≈ 53.4 µM)
- MIC [39]: 32 µg/mL (≈ 107 µM)
- MIC [40]: 16 µg/mL (≈ 53.4 µM)
- MIC [41]: 64 µg/mL (≈ 214 µM)
- MIC [42]: 8 µg/mL (≈ 26.7 µM)
- MIC [43]: 2 µg/mL (≈ 6.68 µM)
- MIC [44]: 16 µg/mL (≈ 53.4 µM)
- MIC [45]: 2 µg/mL (≈ 6.68 µM)
- MIC [46]: 4 µg/mL (≈ 13.4 µM)
- MIC [47]: 4 µg/mL (≈ 13.4 µM)
- MIC [48]: 1 µg/mL (≈ 3.34 µM)
- MIC [49]: 16 µg/mL (≈ 53.4 µM)
- MIC [50]: 16 µg/mL (≈ 53.4 µM)
- MIC [51]: 0.5 µg/mL (≈ 1.67 µM)
- MIC [52]: 2 µg/mL (≈ 6.68 µM)
- MIC [53]: 16 µg/mL (≈ 53.4 µM)
- MIC [54]: 2 µg/mL (≈ 6.68 µM)
- MIC [55]: 2 µg/mL (≈ 6.68 µM)
- MIC [56]: 8 µg/mL (≈ 26.7 µM)
- MIC [57]: 8 µg/mL (≈ 26.7 µM)
